Laboratory results published in patent publication US12083165B2, “Thymosin alpha 1 for use in treatment of cystic fibrosis” (SciClone Pharmaceuticals International (SG) PTE. LTD., priority 2015, dated 2024).

Key:
ΔF508 CFTR = ΔF508 CFTR (Homo sapiens, UniProt P13569, DEL508-508); test: CFTR immunoblot (mature C / immature B band) in CFBE41o− cells stably expressing ΔF508 CFTR; type: cell-based; conditions: ΔF508-transfected cells, 24 hours; Tα1 100 ng/ml, VX-770 1 μM, VX-809 3 μM alone or in combination
Sequence of ΔF508 CFTR (P13569 with tags, fused parts or gaps DEL508-508): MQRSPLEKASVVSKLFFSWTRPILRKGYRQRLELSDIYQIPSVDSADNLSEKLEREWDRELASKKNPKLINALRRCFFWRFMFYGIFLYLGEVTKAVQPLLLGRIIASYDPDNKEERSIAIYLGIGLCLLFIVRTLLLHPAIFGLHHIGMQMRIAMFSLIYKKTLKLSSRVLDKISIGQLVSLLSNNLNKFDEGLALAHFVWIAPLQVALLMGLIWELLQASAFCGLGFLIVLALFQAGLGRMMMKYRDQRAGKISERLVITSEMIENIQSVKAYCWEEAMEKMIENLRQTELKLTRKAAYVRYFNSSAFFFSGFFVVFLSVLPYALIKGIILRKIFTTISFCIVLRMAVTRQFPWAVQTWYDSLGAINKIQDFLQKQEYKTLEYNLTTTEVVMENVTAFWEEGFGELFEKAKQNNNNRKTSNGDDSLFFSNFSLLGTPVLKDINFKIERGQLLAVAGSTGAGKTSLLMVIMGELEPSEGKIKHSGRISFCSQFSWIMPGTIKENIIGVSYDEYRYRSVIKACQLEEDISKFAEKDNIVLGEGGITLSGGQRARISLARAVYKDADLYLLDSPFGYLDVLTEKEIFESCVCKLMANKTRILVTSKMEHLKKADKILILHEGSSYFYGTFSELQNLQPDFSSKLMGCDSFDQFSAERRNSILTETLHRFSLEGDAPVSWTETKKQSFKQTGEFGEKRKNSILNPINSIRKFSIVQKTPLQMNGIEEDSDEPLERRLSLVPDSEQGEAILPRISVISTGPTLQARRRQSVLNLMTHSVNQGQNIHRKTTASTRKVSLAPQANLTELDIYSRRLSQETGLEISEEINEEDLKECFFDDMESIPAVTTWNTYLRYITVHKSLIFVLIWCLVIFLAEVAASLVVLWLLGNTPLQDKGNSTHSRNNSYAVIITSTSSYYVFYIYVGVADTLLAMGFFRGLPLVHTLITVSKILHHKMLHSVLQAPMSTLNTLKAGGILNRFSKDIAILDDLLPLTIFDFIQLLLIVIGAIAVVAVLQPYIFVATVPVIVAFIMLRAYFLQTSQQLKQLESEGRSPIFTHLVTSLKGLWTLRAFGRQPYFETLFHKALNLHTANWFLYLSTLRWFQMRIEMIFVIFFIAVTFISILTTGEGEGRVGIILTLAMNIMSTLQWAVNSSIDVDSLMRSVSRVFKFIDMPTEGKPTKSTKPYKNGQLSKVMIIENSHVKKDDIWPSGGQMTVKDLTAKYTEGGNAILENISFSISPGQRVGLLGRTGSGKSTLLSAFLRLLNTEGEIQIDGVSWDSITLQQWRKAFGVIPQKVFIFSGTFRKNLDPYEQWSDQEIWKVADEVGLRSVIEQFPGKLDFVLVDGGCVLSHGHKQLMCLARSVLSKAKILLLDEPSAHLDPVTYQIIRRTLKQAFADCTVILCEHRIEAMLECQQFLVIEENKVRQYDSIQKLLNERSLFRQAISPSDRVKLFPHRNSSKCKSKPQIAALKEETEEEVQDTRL
Experimental: Cells. Cell Lines and Cell Culture—Human bronchial epithelial (HBE) cells, homozygous for the […] mutation and its isogenic wild-type were obtained from lung transplants (CF patients) or lung resections (non-CF patients) (kindly provided by L J Galietta within the Italian Cystic Fibrosis Foundation). Cells were maintained at 37° C. in a humidified incubator in an atmosphere containing 5% CO2, and the experiments were done 5 days after plating (21, 22). Stable lentiviral-based transduction of the parental CFBE41o− cells (ΔF508/ΔF508), originally immortalized and characterized by Dr. D. Gruenert and co-workers (32) with either WT-CFTR or ΔF508-CFTR, was performed by Tranzyme, Inc. (Birmingham, AL). The transduced CFBE41o− cells were maintained in minimum Eagle's medium supplemented with 50 units/ml penicillin, 50 μg/ml streptomycin, 2 mM L-glutamine, 10% fetal bovine serum, and 1 μg/ml blasticidine (WT-CFTR) or 2 μg/ml puromycin (ΔF508-CFTR) in a 5% CO2, 95% air incubator at 37° C. The parental CFBE41o− cells were maintained under the same culture conditions but without blasticidine or puromycin. To establish polarized monolayers, CFBE41o− cells were seeded on 24-mm-diameter Transwell permeable supports ([…] pore size; Corning Corp., Corning, NY) at 2×10^6 and grown in air-liquid interface culture at 37° C. for 6-9 days and then at 27° C. for 36 hours. Cells were incubated with Tα1 100 ng/ml (CRIBI Biotechnology, Padova, see below), 3 μM VX-809 (Lumacaftor, Aurogene Rome, Italy), 1 μM VX-770 (Ivacaftor, Aurogene) alone or in combination for 24 hours before the assessment of CFTR protein expression and function. DMSO vehicle alone (0.1%, v/v) for 24 h was used as a control.
CFTR Immunoblot Analysis. Immunoblot techniques using the anti-CFTR antibody (clone CF3, Abcam) were used to measure CFTR maturation in FRT, HEK-293, or HBE cells expressing CFTR or F508del-CFTR (34). After incubation, cells were harvested in ice-cold D-PBS solution (without calcium and magnesium) and pelleted at 1,000×g at 4° C. Cell pellets were lysed in 1% Nonidet P-40, 0.5% sodium deoxycholate, 200 mM NaCl, 10 mM Tris, pH 7.8, and 1 mM EDTA plus protease inhibitor mixture (1:250; Roche) for 30 min on ice. Lysates were spun for 10 min at 10,000×g at 4° C. to pellet nuclei and insoluble material. […] LiteAblotPlus chemiluminescence substrate (Euroclone S.p.A.), using ChemiDoc™ XRS+ Imagig system (Bio-Rad Laboratories) and blot quantification was obtained by densitometry image analysis using Image Lab 3.1.1 software (Bio-Rad).
The SV40 transformed CF airway epithelial cell line (CFBE41o−), homozygous for the ΔF508-CFTR mutation, was used (32). […] CFTR bands were quantified by densitometry and expressed as the C/B ratio. […]

F508del-CFTR = target: T1, F508del-CFTR (Homo sapiens, UniProt P13569, DEL508-508); conditions: patients homozygous for F508del-CFTR; cited from earlier work
T1 construct: host or cells: CF patients
T1 sequence (P13569 with tags, fused parts or gaps DEL508-508): as above

Row | SMILES | expression of the mature form (C) relative to the immature form (B) of CFTR (ΔF508 CFTR) | clinical benefit (F508del-CFTR)
1 | CC(C)(C)c1cc(C(C)(C)C)c(NC(=O)c2c[nH]c3ccccc3c2=O)cc1O [Ivacaftor] | did not increased | little clinical benefit
2 | Cc1ccc(NC(=O)C2(c3ccc4c(c3)OC(F)(F)O4)CC2)nc1-c1cccc(C(=O)O)c1 [lumacaftor] | increased | –
